The target of the assay is T1, Recombinant human renin (Homo sapiens, UniProt P00797).
T1 construct: isolate the active form (residues 67-406); made in house; host or cells: FreeStyle 293-F cells, transient expression of pcDNA3.1(+)/hREN
T1 sequence (P00797 67-406): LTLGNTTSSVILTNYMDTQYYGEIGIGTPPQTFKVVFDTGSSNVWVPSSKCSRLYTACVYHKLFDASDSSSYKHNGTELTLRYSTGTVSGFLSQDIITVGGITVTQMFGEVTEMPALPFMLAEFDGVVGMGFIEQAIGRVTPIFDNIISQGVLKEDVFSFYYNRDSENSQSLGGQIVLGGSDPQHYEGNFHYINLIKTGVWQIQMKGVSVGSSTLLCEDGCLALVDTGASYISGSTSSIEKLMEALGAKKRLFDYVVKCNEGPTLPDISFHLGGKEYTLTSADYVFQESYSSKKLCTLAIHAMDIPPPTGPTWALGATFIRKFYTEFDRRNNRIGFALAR
The assay is described as follows: In vitro enzymatic activity assay of renin inhibitors (fluorescence, QXL520/HiLyteFluo488 peptide substrate). In kind it is biochemical. The settings on record: recombinant human renin 3 nM, 1 μM substrate, pre-incubated 10 minutes at 37° C., incubation one hour, pH 7.4, 5% DMSO; read-out: IC50 of Exemplified Compounds Against Renin.

Where only a bound is given, the exact number is not on record here.

Regarding `O=C(c1c(-c2ccccc2)n([C@@H]2CCCC[C@H]2O)c(=O)n1Cc1ccccc1)N1CCNCC1` [Example 105, 1-Benzyl-3-((1R,2R)-2-hydroxycyclohexyl)-4-phenyl-5-(piperazine-1-carbonyl)-1H-imidazol-2(3H)-one], the IC50 (usually the concentration at which inhibition is half-maximal) is > 1000 nM.

Regarding `O=C(c1c(-c2ccccc2)n([C@@H]2CCCC[C@H]2O)c(=O)n1Cc1cccc(Oc2ccccc2)c1)N1CCNCC1` [Example 106, 1-((1R,2R)-2-Hydroxycyclohexyl)-3-(3-phenoxybenzyl)-5-phenyl-4-(piperazine-1-carbonyl)-1H-imidazol-2(3H)-one], the IC50 was in the range of 100 to 500 nM.

As for `O=C(NC[C@@H]1CNCCN1C(=O)c1[nH]c(=O)n([C@@H]2CCCC[C@H]2O)c1-c1ccccc1)c1ccccc1` [Example 107, N—(((S)-1-(1-((1R,2R)-2-Hydroxycyclohexyl)-2-oxo-5-phenyl-2,3-dihydro-1H-imidazole-4-carbonyl)piperazin-2-yl)methyl)benzamide], the IC50 was 500 to 1000 nM.

Consider `O=C(NC[C@@H]1CNCCN1C(=O)c1[nH]c(=O)n(C2CCCCC2)c1-c1ccccc1)c1ccccc1` [Example 108, (S)—N-((1-(1-Cyclohexyl-2-oxo-5-phenyl-2,3-dihydro-1H-imidazole-4-carbonyl)piperazin-2-yl)methyl)benzamide], for which the IC50 was < 100 nM.

In the case of `O=C(c1[nH]c(=O)n(-c2ccccc2)c1-c1ccccc1)N1CCNC[C@H]1Cc1ccccc1` [Example 109, (R)-4-(2-Benzylpiperazine-1-carbonyl)-1,5-diphenyl-1H-imidazol-2(3H)-one], the IC50 was < 100 nM.

Regarding `O=C(c1[nH]c(=O)n(-c2cccc(N3CCOCC3)c2)c1-c1ccccc1)N1CCNC[C@H]1Cc1ccccc1` [Example 110, (R)-4-(2-Benzylpiperazine-1-carbonyl)-1-(3-morpholinophenyl)-5-phenyl-1H-imidazol-2(3H)-one], the half-inhibitory concentration (IC50) was < 100 nM.

As for `O=C(c1[nH]c(=O)n(C2CCCCC2)c1-c1ccccc1)N1CCNC[C@H]1Cc1ccccc1` [Example 111, (R)-4-(2-Benzylpiperazine-1-carbonyl)-1-cyclohexyl-5-phenyl-1H-imidazol-2(3H)-one], the IC50 is < 100 nM.

As to `COc1cccc(-n2c(-c3ccccc3)c(C(=O)N3CCNC[C@H]3Cc3ccccc3)[nH]c2=O)c1OC` [Example 112, (R)-4-(2-Benzylpiperazine-1-carbonyl)-1-(2,3-dimethoxyphenyl)-5-phenyl-1H-imidazol-2(3H)-one], the IC50 is < 100 nM.

Regarding `COc1ccccc1-n1c(-c2ccccc2)c(C(=O)N2CCNC[C@H]2Cc2ccccc2)[nH]c1=O` [Example 113, (R)-4-(2-Benzylpiperazine-1-carbonyl)-1-(2-methoxyphenyl)-5-phenyl-1H-imidazol-2(3H)-one], the IC50 was < 100 nM.

Consider `CS(=O)(=O)c1cccc(-n2c(-c3ccccc3)c(C(=O)N3CCNC[C@H]3Cc3ccccc3)[nH]c2=O)c1` [Example 114, (R)-4-(2-Benzylpiperazine-1-carbonyl)-1-(3-(methylsulfonyl)phenyl)-5-phenyl-1H-imidazol-2(3H)-one], for which the IC50 was < 100 nM.

As for `CC(=O)N1CCCC(n2c(-c3ccccc3)c(C(=O)N3CCNC[C@H]3Cc3ccccc3)[nH]c2=O)C1` (stereo partly drawn) [Example 115, 1-(1-Acetylpiperidin-3-yl)-4-((R)-2-benzylpiperazine-1-carbonyl)-5-phenyl-1H-imidazol-2(3H)-one], the IC50 was in the range of 500 to 1000 nM.

Consider `Cc1ccccc1-n1c(-c2ccccc2)c(C(=O)N2CCNC[C@H]2Cc2ccccc2)[nH]c1=O` [Example 116, (R)-4-(2-Benzylpiperazine-1-carbonyl)-5-phenyl-1-o-tolyl-1H-imidazol-2(3H)-one], for which the IC50 was < 100 nM.

As to `O=C(c1[nH]c(=O)n(-c2ccccc2[N+](=O)[O-])c1-c1ccccc1)N1CCNC[C@H]1Cc1ccccc1` [Example 117, (R)-4-(2-Benzylpiperazine-1-carbonyl)-1-(2-nitrophenyl)-5-phenyl-1H-imidazol-2(3H)-one], the IC50 is < 100 nM.

For `CS(=O)(=O)Nc1ccccc1-n1c(-c2ccccc2)c(C(=O)N2CCNC[C@H]2Cc2ccccc2)[nH]c1=O` [Example 118, (R)—N-(2-(4-(2-Benzylpiperazine-1-carbonyl)-2-oxo-5-phenyl-2,3-dihydro-1H-imidazol-1-yl)phenyl)methanesulfonamide], the IC50 is < 100 nM.

With `CCCS(=O)(=O)Nc1ccccc1-n1c(-c2ccccc2)c(C(=O)N2CCNC[C@H]2Cc2ccccc2)[nH]c1=O` [Example 119, (R)—N-(2-(4-(2-Benzylpiperazine-1-carbonyl)-2-oxo-5-phenyl-2,3-dihydro-1H-imidazol-1-yl)phenyl)propane-1-sulfonamide], the IC50 is < 100 nM.

As to `O=C(Nc1ccccc1-n1c(-c2ccccc2)c(C(=O)N2CCNC[C@H]2Cc2ccccc2)[nH]c1=O)C1CC1` [Example 120, (R)—N-(2-(4-(2-Benzylpiperazine-1-carbonyl)-2-oxo-5-phenyl-2,3-dihydro-1H-imidazol-1-yl)phenyl)cyclopropanecarboxamide], the IC50 lay in the range of 100 to 500 nM.

Take `CCCC(=O)Nc1ccccc1-n1c(-c2ccccc2)c(C(=O)N2CCNC[C@H]2Cc2ccccc2)[nH]c1=O` [Example 121, (R)—N-(2-(4-(2-Benzylpiperazine-1-carbonyl)-2-oxo-5-phenyl-2,3-dihydro-1H-imidazol-1-yl)phenyl)butyramide]: the IC50 lay in the range of 100 to 500 nM.

For the molecule `CC(=O)Nc1ccccc1-n1c(-c2ccccc2)c(C(=O)N2CCNC[C@H]2Cc2ccccc2)[nH]c1=O` [Example 122, (R)—N-(2-(4-(2-Benzylpiperazine-1-carbonyl)-2-oxo-5-phenyl-2,3-dihydro-1H-imidazol-1-yl)phenyl)acetamide], the 50% inhibitory concentration (IC50) is < 100 nM.

Take `O=C(c1[nH]c(=O)n(-c2ccccc2NS(=O)(=O)C2CC2)c1-c1ccccc1)N1CCNC[C@H]1Cc1ccccc1` [Example 123, (R)—N-(2-(4-(2-Benzylpiperazine-1-carbonyl)-2-oxo-5-phenyl-2,3-dihydro-1H-imidazol-1-yl)phenyl)cyclopropanesulfonamide]: the IC50 was in the range of 100 to 500 nM.

Turning to `O=C(Nc1ccccc1-n1c(-c2ccccc2)c(C(=O)N2CCNC[C@H]2Cc2ccccc2)[nH]c1=O)c1ccccc1` [Example 124, (R)—N-(2-(4-(2-Benzylpiperazine-1-carbonyl)-2-oxo-5-phenyl-2,3-dihydro-1H-imidazol-1-yl)phenyl)benzamide], the IC50 was < 100 nM.

`O=C(c1[nH]c(=O)n(-c2ccccc2NS(=O)(=O)c2ccccc2)c1-c1ccccc1)N1CCNC[C@H]1Cc1ccccc1` [Example 125, (R)—N-(2-(4-(2-benzylpiperazine-1-carbonyl)-2-oxo-5-phenyl-2,3-dihydro-1H-imidazol-1-yl)phenyl)Benzenesulfonamide]: the IC50 is < 100 nM.

In the case of `O=C(c1[nH]c(=O)n([C@H]2CCCC[C@@H]2O)c1-c1ccccc1)N1CCNC[C@H]1Cc1ccccc1` [Example 126, 4-((R)-2-Benzylpiperazine-1-carbonyl)-1-((1S,2S)-2-hydroxycyclohexyl)-5-phenyl-1H-imidazol-2(3H)-one], the concentration for half-maximal inhibition (IC50) is < 100 nM.

On to `CCS(=O)(=O)Nc1ccccc1-n1c(-c2ccccc2)c(C(=O)N2CCNC[C@H]2Cc2ccccc2)[nH]c1=O` [Example 127, (R)—N-(2-(4-(2-Benzylpiperazine-1-carbonyl)-2-oxo-5-phenyl-2,3-dihydro-1H-imidazol-1-yl)phenyl)ethanesulfonamide], for which the IC50 fell in the range of 100 to 500 nM.

The values above are taken from patent publication US8148367B2 (Takeda Pharmaceutical Company Limited, priority 2008, dated 2012).
